Results reported in article PMC9533879 (European Journal of Medicinal Chemistry, 2021).

Experiments:
[1] = test system: Vero cell culture
[2] = test system: Vaccinia virus (strain Copenhagen); conditions: for IC50: read-out: IC50 Vaccinia

Molecule	CC50 [1] [µM]	SI (CC50/IC50) Vaccinia [2]	IC50 [2] [µM]	times less active than the reference compound tecovirimat [2]
3,5-Dimethyl-N^1-(4-(trifluoromethyl)benzoyl)adamantane-1-carbohydrazide [Compound 17]	> 254	30.9/>8.2	30.9	
3-Ethyl-N^1-(4-(trifluoromethyl)benzoyl)adamantane-1-carbohydrazide [Compound 18]	47	12.53/3.75	12.5	
O=C(NC12CC3CC(CC(C3)C1)C2)c1ccc(C(F)(F)F)cc1 [Compound 5, N-(Adamantan-1-yl)-4-(trifluoromethyl)benzamide]				50
CCC12CC3CC(C1)CC(NC(=O)c1ccc(C(F)(F)F)cc1)(C3)C2 [Compound 6, N-(3-Ethylаdamantan-1-yl)-4-(trifluoromethyl)benzamide]		4.1/>68		
CN(C(=O)c1ccc(C(F)(F)F)cc1)C12CC3CC(CC(C3)C1)C2 [Compound 7, N-(Adamantan-1-yl)-N-methyl-4-(trifluoromethyl)benzamide]		4.85/>61		
O=C(NCC12CC3CC(CC(C3)C1)C2)c1ccc(Br)cc1 [Compound 9, N-((Adamantan-1-yl)methyl)-4-bromobenzamide]		8.3/28		
O=C(NC1C2CC3CC(C2)CC1C3)c1ccc(Br)cc1 (centres unmarked) [Compound 11, N-(Adamantan-2-yl)-4-bromobenzamide]		3.06/>98		
O=C(NNC(=O)C12CC3CC(CC(C3)C1)C2)c1ccc(C(F)(F)F)cc1 [Compound 16, N^1-(4-(Trifluoromethyl)benzoyl)adamantane-1-carbohydrazide]	> 273	1.07/>255		
O=C(NNC(=O)c1ccc(C(F)(F)F)cc1)NC12CC3CC(CC(C3)C1)C2 [Compound 20, N^1-(Adamantan-1-yl)-2-(4-(trifluoromethyl)benzoyl)hydrazine-1-carboxamide]		36.26/2.6		
C/C(=N\NC(=O)c1ccc(C(F)(F)F)cc1)C12CC3CC(CC(C3)C1)C2 [Compound 31, N^1-(1-(Adamantan-1-yl)ethylidene)-4-(trifluoromethyl)benzohydrazide]		10.55/>26		
CC12CC3CC(C1)CC(NC(=O)c1ccc(C(F)(F)F)cc1)(C3)C2 [Compound 37]		8.98/>33		
(rac)-N^1-(1-(Adamantan-1-yl)ethyl)-4-(trifluoromethyl)benzohydrazide [Compound 32]	14	0.515/27	0.515	
N^1-(3-Ethyladamantan-1-yl)-4-(trifluoromethyl)benzohydrazide [Compound 36]	2.5	1.66/1.5	1.66	
N^1-(5-Chloroadamantan-2-yl)-4-(trifluoromethyl)benzohydrazide [Compound 28]	~215	3.52/61	3.52	
N^1-(Adamantan-1-yl)-4-(trifluoromethyl)benzohydrazide [Compound 35]	2.8			
N^1-(Adamantan-2-yl)-4-(trifluoromethyl)benzohydrazide [Compound 27]	> 296	2.8/>103	2.8	
